Data on 10 compounds can be found in PubChem BioAssay (NCI).

Among the test systems are UO-31 renal; 786-0 renal; MOLT-4 leukemia; MDA-MB-435; OVCAR-4 ovarian; HOP-62 NSCLC; DU-145 prostate; SN12C renal; NCI-H522 lung; RPMI-8226 leukemia.
What all share (experiment): NCI-60 cell line screen, 48 h

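Exposure lasted 48 hours, with cells grown in 96-well plates and compounds tested at five concentrations. Here, GI50 denotes the concentration required for 50% inhibition of growth. TGI: total growth inhibition.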 Bounds are passed on as bounds.

As to `CC1(C)CC(O)CCCCCCOc2c(CN)cccc2NC(=O)c2nc(cnc2N)-c2ccc(cc2)S1(=O)=O` (configuration not stated), the GI50 is 0.648 µM with UO-31 renal; 0.0278 µM with 786-0 renal; less than 0.0122 µM in the assay on MOLT-4 leukemia; 0.558 µM in the assay on MDA-MB-435; 1.3 µM with OVCAR-4 ovarian; 1.41 µM in the assay on HOP-62 NSCLC. The GI50 is 0.0359 µM in the assay on DU-145 prostate, 0.761 µM in the assay on SN12C renal and 1.22 µM in the assay with NCI-H522 lung. Also, the TGI in the assay with UO-31 renal is 2.25 µM; in the assay on 786-0 renal it was 1.97 µM; with MOLT-4 leukemia it was 2.01 µM; in the assay with MDA-MB-435 it was 2.16 µM; in the assay on OVCAR-4 ovarian, 3.43 µM; with HOP-62 NSCLC it was 3.75 µM. For the same compound, the TGI with DU-145 prostate is 2.07 µM; in the assay with SN12C renal, 2.49 µM; with NCI-H522 lung, 2.96 µM.
On to `CCC(C)c1cnc(CC(C)C)c(=O)[nH]1` (configuration not stated), for which the TGI in the assay with UO-31 renal, in the assay with 786-0 renal, in the assay on MOLT-4 leukemia, with MDA-MB-435, in the assay on OVCAR-4 ovarian and with HOP-62 NSCLC was more than 100 µM each time. The TGI with DU-145 prostate, in the assay with SN12C renal and in the assay with RPMI-8226 leukemia was more than 100 µM in each case.
Take `C=CC1=C(C)C(Cc2[nH]c(/C=c3\[nH]/c(=C/C4=NC(=O)C(C)/C4=C\C)c(C)c3CCC(=O)O)c(CCC(=O)OC)c2C)NC1=O` (configuration not stated): the GI50 in the assay on UO-31 renal was 18.9 µM; in the assay with 786-0 renal, 22 µM; in the assay with MOLT-4 leukemia, 34.1 µM; in the assay on MDA-MB-435, 23.9 µM; in the assay with HOP-62 NSCLC, 26.4 µM; with DU-145 prostate it was 62.6 µM. For the same compound, the GI50 in the assay with SN12C renal was 22.2 µM; with RPMI-8226 leukemia it was 23.9 µM; with NCI-H522 lung, 17.7 µM. The TGI in the assay on UO-31 renal is 36.1 µM; with 786-0 renal it was 62.5 µM; in the assay on MOLT-4 leukemia, more than 100 µM; in the assay with MDA-MB-435 it was 62 µM; in the assay with HOP-62 NSCLC it was 62.4 µM; with DU-145 prostate, more than 100 µM. For the same compound, the values for the TGI in the assay on SN12C renal, with RPMI-8226 leukemia and with NCI-H522 lung were 44.6 µM, 59.8 µM and 32 µM, respectively.
In the case of `C#CCOc1cccc(Nc2ncnc3c2ncn3C2CCN(C(=O)CCl)C2)c1` (configuration not stated), the GI50 with UO-31 renal is 15.2 µM; with 786-0 renal it was 18.9 µM; in the assay with MDA-MB-435, 20.4 µM; in the assay with OVCAR-4 ovarian, 19.4 µM; with HOP-62 NSCLC, 33.3 µM; in the assay on DU-145 prostate, 19.8 µM. For the same compound, the GI50 with SN12C renal is 15.4 µM; in the assay with RPMI-8226 leukemia it was 21 µM; with NCI-H522 lung, 5.02 µM. In addition, the TGI in the assay with UO-31 renal is 29.6 µM; in the assay on 786-0 renal, 36.8 µM; in the assay on MDA-MB-435 it was 53.5 µM; in the assay with OVCAR-4 ovarian it was 45 µM; in the assay on HOP-62 NSCLC, more than 100 µM; in the assay with DU-145 prostate, 37.5 µM. The results for the TGI with SN12C renal, with RPMI-8226 leukemia and with NCI-H522 lung were 35.5 µM, 44.2 µM and 19.7 µM, respectively.
In the case of `CC(C)(C)n1cc(-c2ccnc(NCCCNS(=O)(=O)c3ccc(Cl)cc3)c2)c(-c2cccc(O)c2)n1`, the GI50 in the assay on UO-31 renal was 1.89 µM; in the assay with 786-0 renal, 2.03 µM; with MOLT-4 leukemia, 1.91 µM; in the assay on MDA-MB-435, 1.79 µM; with OVCAR-4 ovarian it was 1.94 µM; in the assay with HOP-62 NSCLC it was 1.74 µM. Besides, the GI50 in the assay with DU-145 prostate was 2.75 µM; with SN12C renal it was 1.65 µM; in the assay with NCI-H522 lung it was 1.92 µM. The TGI is 5.02 µM with UO-31 renal; 4.54 µM with 786-0 renal; 5.64 µM with MOLT-4 leukemia; 3.41 µM with MDA-MB-435; 4.64 µM with OVCAR-4 ovarian; 3.52 µM with HOP-62 NSCLC. The TGI in the assay with DU-145 prostate was 7.63 µM; in the assay on SN12C renal it was 3.1 µM; in the assay with NCI-H522 lung, 3.91 µM.
As to `NC(=O)C12CCC1C1CCCCC12N1CCOCC1` (configuration not stated), the TGI with UO-31 renal, in the assay on 786-0 renal, with MOLT-4 leukemia, with OVCAR-4 ovarian, with HOP-62 NSCLC and in the assay with SN12C renal was more than 100 µM each time. Also, the TGI with RPMI-8226 leukemia and in the assay on NCI-H522 lung was more than 100 µM each time.
In the case of `C=C(C)C1CCC2(CO)C(O)CC3(C)C(CCC4C5(C)CCC(O)C(C)(C)C5CCC43C)C12` (configuration not stated), the TGI is 26.7 µM in the assay on UO-31 renal; more than 100 µM in the assay on 786-0 renal; more than 100 µM in the assay on MOLT-4 leukemia; 38.3 µM in the assay on MDA-MB-435; 27 µM in the assay with HOP-62 NSCLC; more than 100 µM in the assay on DU-145 prostate. For the same compound, the TGI with SN12C renal was more than 100 µM; in the assay on NCI-H522 lung, 42.4 µM.
For `CCOC(CN(C)C(=O)OCC(Cl)(Cl)Cl)OCC`, the TGI in the assay with UO-31 renal, in the assay with 786-0 renal, in the assay with MOLT-4 leukemia, in the assay on MDA-MB-435, in the assay on OVCAR-4 ovarian and with HOP-62 NSCLC was more than 100 µM in each case. Moreover, the TGI in the assay on DU-145 prostate, in the assay on SN12C renal and in the assay on NCI-H522 lung was more than 100 µM throughout.
`COc1ccc(-c2cc3nccn3c(Nc3ncccc3C(N)=O)n2)cc1OC`: the GI50 was 0.758 µM in the assay with UO-31 renal; 2.42 µM in the assay on 786-0 renal; 4.14 µM in the assay on MOLT-4 leukemia; more than 100 µM in the assay on OVCAR-4 ovarian; 3.18 µM with HOP-62 NSCLC; 2 µM in the assay on DU-145 prostate. Besides, the GI50 was 1.05 µM in the assay on SN12C renal, 2.75 µM in the assay with RPMI-8226 leukemia and 1.18 µM in the assay with NCI-H522 lung. The TGI in the assay with UO-31 renal was 42.1 µM; in the assay with 786-0 renal, more than 100 µM; in the assay on MOLT-4 leukemia, more than 100 µM; in the assay with OVCAR-4 ovarian it was more than 100 µM; in the assay with HOP-62 NSCLC, more than 100 µM; in the assay with DU-145 prostate it was more than 100 µM. Besides, the TGI in the assay with SN12C renal, in the assay on RPMI-8226 leukemia and in the assay with NCI-H522 lung was more than 100 µM in each case.
As to `O/N=C1/C(=C/c2ccc(Cl)cc2)CCCC1C(NO)c1ccc(Cl)cc1` (configuration not stated), the TGI in the assay with UO-31 renal is 63.4 µM; in the assay with 786-0 renal it was 42.7 µM; in the assay with MOLT-4 leukemia, 37.2 µM; in the assay with OVCAR-4 ovarian, 32.8 µM; with HOP-62 NSCLC, 68.9 µM; with SN12C renal, 39.7 µM. Moreover, the TGI in the assay with RPMI-8226 leukemia amounted to 44.4 µM; with NCI-H522 lung it was 62.8 µM.
